In PMC5218480 (PLoS ONE, 2017):

Tested on: MV-4-11 cells
Assay: Gene expression microarray analysis (Affymetrix PrimeView) and GSEA
Type: cell-based, human
Parameters: RFU PODN (11730768_x_at) / Fold change /veh PODN (11730768_x_at) / RFU LINC00158 (11744669_a_at) / Fold change /veh LINC00158 (11744669_a_at) / RFU DUSP10 (11751237_a_at) / Fold change /veh DUSP10 (11751237_a_at) / RFU ID3 (11757404_x_at) / Fold change /veh ID3 (11757404_x_at) / RFU PLEKHG5 (11737974_s_at) / Fold change /veh PLEKHG5 (11737974_s_at) / RFU LRRC4B (11730491_at) / Fold change /veh LRRC4B (11730491_at) / RFU GIMAP4 (11747438_a_at) / Fold change /veh GIMAP4 (11747438_a_at) / RFU KRT8 (11758183_x_at) / Fold change /veh KRT8 (11758183_x_at) / RFU CNN1 (11734310_a_at) / Fold change /veh CNN1 (11734310_a_at) / RFU VPS37D (11726825_at) / Fold change /veh VPS37D (11726825_at) / RFU C10orf10 (11716522_x_at) / Fold change /veh C10orf10 (11716522_x_at) / RFU KIR2DL2 /// KIR2DL4 /// KIR2DL5A /// KIR2DL5B /// KIR2DS1 /// KIR2DS2 /// KIR2DS3 /// KIR2DS4 /// KIR3DL3 /// KIR3DL3 /// KIR3DS1 (11738374_at) / Fold change /veh KIR2DL2 /// KIR2DL4 /// KIR2DL5A /// KIR2DL5B /// KIR2DS1 /// KIR2DS2 /// KIR2DS3 /// KIR2DS4 /// KIR3DL3 /// KIR3DL3 /// KIR3DS1 (11738374_at) / RFU C1QL1 (11718748_at) / Fold change /veh C1QL1 (11718748_at) / RFU TMPRSS4 (11747572_a_at) / Fold change /veh TMPRSS4 (11747572_a_at) / RFU HAMP (11756126_x_at) / Fold change /veh HAMP (11756126_x_at) / RFU RNFT2 (11725882_a_at) / Fold change /veh RNFT2 (11725882_a_at) / RFU NR4A2 (11747474_a_at) / Fold change /veh NR4A2 (11747474_a_at) / RFU ABCC12 (11746883_a_at) / Fold change /veh ABCC12 (11746883_a_at) / RFU TMEM136 (11760407_x_at) / Fold change /veh TMEM136 (11760407_x_at) / RFU CLDN22 /// WWC2 (11732394_at) / Fold change /veh CLDN22 /// WWC2 (11732394_at) / RFU HLA-DPB1 (11760878_x_at) / Fold change /veh HLA-DPB1 (11760878_x_at) / RFU SPINT1 (11716480_a_at) / Fold change /veh SPINT1 (11716480_a_at) / RFU GAP43 (11754022_s_at) / Fold change /veh GAP43 (11754022_s_at) / RFU A4GNT (11735810_at) / Fold change /veh A4GNT (11735810_at) / RFU PRB3 (11715151_x_at) / Fold change /veh PRB3 (11715151_x_at) / RFU TUBB4B (11761932_at) / Fold change /veh TUBB4B (11761932_at) / RFU CAPN14 (11732068_a_at) / Fold change /veh CAPN14 (11732068_a_at) / RFU TMCC2 (11721928_a_at) / Fold change /veh TMCC2 (11721928_a_at) / RFU IRGQ (11745062_a_at) / Fold change /veh IRGQ (11745062_a_at) / RFU FAM174B (11720279_a_at) / Fold change /veh FAM174B (11720279_a_at) / RFU TMPRSS4 (11748680_a_at) / Fold change /veh TMPRSS4 (11748680_a_at) / RFU FAM212B (11763350_a_at) / Fold change /veh FAM212B (11763350_a_at) / RFU PLEKHG5 (11743358_a_at) / Fold change /veh PLEKHG5 (11743358_a_at) / RFU ZSCAN30 (11745921_a_at) / Fold change /veh ZSCAN30 (11745921_a_at) / RFU CMKLR1 (11741424_a_at) / Fold change /veh CMKLR1 (11741424_a_at) / RFU LOC101060620 /// MAPK8IP1 (11723275_at) / Fold change /veh LOC101060620 /// MAPK8IP1 (11723275_at) / RFU SPTSSB (11747773_x_at) / Fold change /veh SPTSSB (11747773_x_at) / RFU PRSS12 (11739890_at) / Fold change /veh PRSS12 (11739890_at) / RFU BIN1 (11741810_x_at) / Fold change /veh BIN1 (11741810_x_at) / RFU WNT11 (11732464_a_at) / Fold change /veh WNT11 (11732464_a_at) / RFU C10orf10 (11716521_a_at) / Fold change /veh C10orf10 (11716521_a_at) / RFU C5orf56 (11738089_at) / Fold change /veh C5orf56 (11738089_at) / RFU CYB561 (11721691_x_at) / Fold change /veh CYB561 (11721691_x_at) / RFU ANKRD19P (11752326_a_at) / Fold change /veh ANKRD19P (11752326_a_at) / RFU OR2T12 /// OR2T33 /// OR2T8 (11738714_s_at) / Fold change /veh OR2T12 /// OR2T33 /// OR2T8 (11738714_s_at) / RFU VCAN (11748164_a_at) / Fold change /veh VCAN (11748164_a_at) / RFU JSRP1 (11732532_at) / Fold change /veh JSRP1 (11732532_at) / RFU KRTAP10-11 (11738290_x_at) / Fold change /veh KRTAP10-11 (11738290_x_at) / RFU MYO3A (11730013_a_at) / Fold change /veh MYO3A (11730013_a_at) / RFU EBF3 (11725865_a_at) / Fold change /veh EBF3 (11725865_a_at) / RFU CAMK2N1 (11719241_x_at) / Fold change /veh CAMK2N1 (11719241_x_at) / RFU C5orf56 (11738088_a_at) / Fold change /veh C5orf56 (11738088_a_at) / RFU OLFML3 (11715873_a_at) / Fold change /veh OLFML3 (11715873_a_at) / RFU LOC100653217 /// NTM (11731650_a_at) / Fold change /veh LOC100653217 /// NTM (11731650_a_at) / RFU MAPK11 (11762145_a_at) / Fold change /veh MAPK11 (11762145_a_at) / RFU FIZ1 (11724087_x_at) / Fold change /veh FIZ1 (11724087_x_at) / RFU OASL (11726364_x_at) / Fold change /veh OASL (11726364_x_at) / RFU SOX15 (11748057_x_at) / Fold change /veh SOX15 (11748057_x_at) / RFU CD79A (11719716_a_at) / Fold change /veh CD79A (11719716_a_at) / RFU HIST1H1D (11736915_at) / Fold change /veh HIST1H1D (11736915_at) / RFU CASKIN2 (11723855_a_at) / Fold change /veh CASKIN2 (11723855_a_at) / RFU LOC730098 (11760151_x_at) / Fold change /veh LOC730098 (11760151_x_at) / RFU OR4N2 (11742367_at) / Fold change /veh OR4N2 (11742367_at) / RFU PRRT2 (11749266_a_at) / Fold change /veh PRRT2 (11749266_a_at) / RFU SNX32 (11753110_a_at) / Fold change /veh SNX32 (11753110_a_at) / RFU CDHR5 (11726645_a_at) / Fold change /veh CDHR5 (11726645_a_at) / RFU RCAN1 (11760418_a_at) / Fold change /veh RCAN1 (11760418_a_at) / RFU FAM167A (11723789_a_at) / Fold change /veh FAM167A (11723789_a_at) / RFU FAM26E (11764081_at) / Fold change /veh FAM26E (11764081_at) / RFU ISYNA1 (11749810_s_at) / Fold change /veh ISYNA1 (11749810_s_at) / RFU ACY1 (11761880_at) / Fold change /veh ACY1 (11761880_at) / RFU 11764098_at / Fold change /veh 11764098_at / RFU SAMD14 (11745864_x_at) / Fold change /veh SAMD14 (11745864_x_at) / RFU NPB (11741838_a_at) / Fold change /veh NPB (11741838_a_at) / RFU TMPRSS6 (11731388_a_at) / Fold change /veh TMPRSS6 (11731388_a_at) / RFU KRTAP10-2 (11738614_at) / Fold change /veh KRTAP10-2 (11738614_at) / RFU ARHGAP8 /// PRR5-ARHGAP8 (11727945_x_at) / Fold change /veh ARHGAP8 /// PRR5-ARHGAP8 (11727945_x_at) / RFU KRTAP5-7 /// NADSYN1 (11734609_at) / Fold change /veh KRTAP5-7 /// NADSYN1 (11734609_at) / RFU RASL12 (11751679_a_at) / Fold change /veh RASL12 (11751679_a_at) / RFU CDKN2B (11736163_a_at) / Fold change /veh CDKN2B (11736163_a_at) / RFU PRF1 (11729649_at) / Fold change /veh PRF1 (11729649_at) / RFU, ZNF638 /// ZNF638-IT1 / Fold change vs veh, ZNF638 /// ZNF638-IT1 / RFU, PANK3 / Fold change vs veh, PANK3 / RFU, SH3YL1 / Fold change vs veh, SH3YL1 / RFU, ZEB2 / Fold change vs veh, ZEB2 / RFU, NRIP1 / Fold change vs veh, NRIP1 / RFU, PTTG1IP / Fold change vs veh, PTTG1IP / RFU, CAPN2 / Fold change vs veh, CAPN2 / RFU, MED14 / Fold change vs veh, MED14 / RFU, SNORA58 / Fold change vs veh, SNORA58 / RFU, C1orf63 / Fold change vs veh, C1orf63 / RFU, LRRFIP1 / Fold change vs veh, LRRFIP1 / RFU, NDUFAF7 / Fold change vs veh, NDUFAF7 / RFU, SLC12A2 / Fold change vs veh, SLC12A2 / RFU, IBTK / Fold change vs veh, IBTK / RFU, ESF1 / Fold change vs veh, ESF1 / Fold change vs veh, TMEM50B / RFU, TAOK1 / Fold change vs veh, TAOK1 / RFU, ACBD3 / Fold change vs veh, ACBD3 / RFU, TMA16 / Fold change vs veh, TMA16 / RFU, RWDD3 / Fold change vs veh, RWDD3 / RFU, BCAT1 / Fold change vs veh, BCAT1 / RFU, EDEM3 / Fold change vs veh, EDEM3 / RFU, TMEM33 / Fold change vs veh, TMEM33 / RFU, WDR75 / Fold change vs veh, WDR75 / RFU, AHCTF1 / Fold change vs veh, AHCTF1 / RFU, TFRC / Fold change vs veh, TFRC / RFU, ZDHHC17 / Fold change vs veh, ZDHHC17 / RFU, NOM1 / Fold change vs veh, NOM1 / RFU, ARL8B / Fold change vs veh, ARL8B / RFU, ZBTB11 / Fold change vs veh, ZBTB11 / RFU, TAMM41 / Fold change vs veh, TAMM41 / RFU, KIAA1704 /// LOC100996395 / Fold change vs veh, KIAA1704 /// LOC100996395 / RFU, ING1 / Fold change vs veh, ING1 / RFU, TRMT61B / Fold change vs veh, TRMT61B / RFU, FUBP3 / Fold change vs veh, FUBP3 / RFU, TP53 / Fold change vs veh, TP53 / RFU, TNKS2 / Fold change vs veh, TNKS2 / RFU, ZFP14 / Fold change vs veh, ZFP14 / RFU, ACTR2 / Fold change vs veh, ACTR2 / RFU, PPP3R1 / Fold change vs veh, PPP3R1 / RFU, PIK3R1 / Fold change vs veh, PIK3R1 / RFU, HNRNPA1 / Fold change vs veh, HNRNPA1 / RFU, RNF170 / Fold change vs veh, RNF170 / RFU, ZNF28 / Fold change vs veh, ZNF28 / RFU, RNGTT / Fold change vs veh, RNGTT / RFU, OGT / Fold change vs veh, OGT / RFU, BRD1 / Fold change vs veh, BRD1 / RFU, MARS / Fold change vs veh, MARS / RFU, ZNF655 / Fold change vs veh, ZNF655 / RFU, FAHD1 / Fold change vs veh, FAHD1 / RFU, BDP1 / Fold change vs veh, BDP1 / RFU, LRRCC1 / Fold change vs veh, LRRCC1 / RFU, ARID1A / Fold change vs veh, ARID1A / RFU, ZNF146 / Fold change vs veh, ZNF146 / RFU, ZNF330 / Fold change vs veh, ZNF330 / RFU, GPN3 / Fold change vs veh, GPN3 / RFU, C9orf123 / Fold change vs veh, C9orf123 / RFU, N4BP2L2 / Fold change vs veh, N4BP2L2 / RFU, ARFIP1 / Fold change vs veh, ARFIP1 / RFU, FAM179B / Fold change vs veh, FAM179B / RFU, BCL10 / Fold change vs veh, BCL10 / RFU, UHRF1BP1L / Fold change vs veh, UHRF1BP1L / RFU, BET1 / Fold change vs veh, BET1 / RFU, CNOT2 / Fold change vs veh, CNOT2 / RFU, ZNF268 / Fold change vs veh, ZNF268 / Fold change vs veh, ZNF507 / RFU, DGCR2 / Fold change vs veh, DGCR2 / RFU, WDSUB1 / Fold change vs veh, WDSUB1 / Fold change vs veh, HSP90B1 /// MIR3652 / RFU, ADSS / Fold change vs veh, ADSS / RFU, GK / Fold change vs veh, GK / RFU, ZNF148 / Fold change vs veh, ZNF148 / RFU, TAF9 / Fold change vs veh, TAF9 / RFU, SLC1A5 / Fold change vs veh, SLC1A5 / RFU, SLMO2 / Fold change vs veh, SLMO2 / RFU, ABCC4 / Fold change vs veh, ABCC4 / RFU, LOC101060439 /// RAP1B / Fold change vs veh, LOC101060439 /// RAP1B / RFU, RFX7 / Fold change vs veh, RFX7 / RFU, GTPBP10 / Fold change vs veh, GTPBP10 / RFU, CNEP1R1 / Fold change vs veh, CNEP1R1 / RFU, BIVM-ERCC5 /// ERCC5 / Fold change vs veh, BIVM-ERCC5 /// ERCC5 / RFU, ILF3 / Fold change vs veh, ILF3 / RFU 11762660_at / Fold change /veh 11762660_at / RFU VCAN (11757783_s_at) / Fold change /veh VCAN (11757783_s_at) / RFU DDX43 (11728927_at) / Fold change /veh DDX43 (11728927_at) / RFU KRT8 (11758188_x_at) / Fold change /veh KRT8 (11758188_x_at) / RFU NKD1 (11759106_at) / Fold change /veh NKD1 (11759106_at) / RFU SRD5A1 (11742802_a_at) / Fold change /veh SRD5A1 (11742802_a_at) / RFU TPSAB1 /// TPSB2 (11721975_s_at) / Fold change /veh TPSAB1 /// TPSB2 (11721975_s_at) / RFU GSTM3 (11746129_a_at) / Fold change /veh GSTM3 (11746129_a_at) / RFU IL23R (11737362_x_at) / Fold change /veh IL23R (11737362_x_at) / RFU TMEM51 (11727254_a_at) / Fold change /veh TMEM51 (11727254_a_at) / RFU PIWIL2 (11732686_x_at) / Fold change /veh PIWIL2 (11732686_x_at) / RFU ORM1 (11744905_x_at) / Fold change /veh ORM1 (11744905_x_at) / RFU CCDC152 (11743942_at) / Fold change /veh CCDC152 (11743942_at) / RFU ECM1 (11717891_a_at) / Fold change /veh ECM1 (11717891_a_at) / RFU IL23R (11748794_a_at) / Fold change /veh IL23R (11748794_a_at) / RFU TNFAIP8L3 (11732012_x_at) / Fold change /veh TNFAIP8L3 (11732012_x_at) / RFU MBOAT4 (11741988_at) / Fold change /veh MBOAT4 (11741988_at) / RFU 11764193_at / Fold change /veh 11764193_at / RFU TMEM53 (11763286_at) / Fold change /veh TMEM53 (11763286_at) / RFU MAGEB2 (11727129_at) / Fold change /veh MAGEB2 (11727129_at) / RFU TMEM200A (11744735_a_at) / Fold change /veh TMEM200A (11744735_a_at) / RFU CCDC152 (11751479_a_at) / Fold change /veh CCDC152 (11751479_a_at) / RFU FAM211A (11726209_a_at) / Fold change /veh FAM211A (11726209_a_at) / RFU RGS16 (11746705_a_at) / Fold change /veh RGS16 (11746705_a_at) / RFU VCAN (11755009_s_at) / Fold change /veh VCAN (11755009_s_at) / RFU RHOB (11743442_s_at) / Fold change /veh RHOB (11743442_s_at) / RFU RGS16 (11720943_a_at) / Fold change /veh RGS16 (11720943_a_at) / RFU RGS16 (11720944_at) / Fold change /veh RGS16 (11720944_at) / RFU, VPS4B / Fold change vs veh, VPS4B / RFU, CREB1 / Fold change vs veh, CREB1 / RFU, DNAJC13 / Fold change vs veh, DNAJC13 / RFU, GNAQ / Fold change vs veh, GNAQ / RFU, CDK5R1 / Fold change vs veh, CDK5R1 / RFU, ZRANB3 / Fold change vs veh, ZRANB3 / RFU, CUL4A / Fold change vs veh, CUL4A / RFU, CCNY / Fold change vs veh, CCNY / RFU, UFL1 / Fold change vs veh, UFL1 / RFU, COG3 / Fold change vs veh, COG3 / RFU, DIAPH2 / Fold change vs veh, DIAPH2 / RFU, SKA2 / Fold change vs veh, SKA2 / RFU, AFF3 / Fold change vs veh, AFF3 / RFU, LMF1 / Fold change vs veh, LMF1 / RFU, IPO11 / Fold change vs veh, IPO11 / RFU, DFFB / Fold change vs veh, DFFB / RFU, FOXP1 / Fold change vs veh, FOXP1 / RFU, CARD8 / Fold change vs veh, CARD8 / RFU, STRN3 / Fold change vs veh, STRN3 / RFU, ADK / Fold change vs veh, ADK / RFU, RASSF2 / Fold change vs veh, RASSF2 / RFU, WIPF1 / Fold change vs veh, WIPF1 / RFU, LARP1B / Fold change vs veh, LARP1B / RFU, RASA1 / Fold change vs veh, RASA1 / RFU, RB1 / Fold change vs veh, RB1 / RFU, PPFIA1 / Fold change vs veh, PPFIA1 / RFU, MAT2A / Fold change vs veh, MAT2A / RFU, CCT5 / Fold change vs veh, CCT5 / RFU, WDR92 / Fold change vs veh, WDR92 / RFU, CUX1 / Fold change vs veh, CUX1 / RFU, TTC7A / Fold change vs veh, TTC7A / RFU, TMEM135 / Fold change vs veh, TMEM135 / RFU, DEPTOR / Fold change vs veh, DEPTOR / RFU, CPM / Fold change vs veh, CPM / RFU, DNAJB6 / Fold change vs veh, DNAJB6 / RFU, CACNA2D3 / Fold change vs veh, CACNA2D3 / RFU, DTX4 / Fold change vs veh, DTX4 / RFU, TFCP2 / Fold change vs veh, TFCP2 / RFU, GMCL1 /// GMCL1P1 / Fold change vs veh, GMCL1 /// GMCL1P1 / RFU, AEBP2 / Fold change vs veh, AEBP2 / RFU, SNHG1 /// SNORD22 /// SNORD25 /// SNORD26 /// SNORD27 /// SNORD28 /// SNORD29 /// SNORD31 / Fold change vs veh, SNHG1 /// SNORD22 /// SNORD25 /// SNORD26 /// SNORD27 /// SNORD28 /// SNORD29 /// SNORD31 / Fold change (Aza/veh), C12orf56 (ProbeSet 11735607_a_at) / Fold change (ACY-1035/veh), C12orf56 (ProbeSet 11735607_a_at) / Fold change (Aza/veh), FGFR1OP (ProbeSet 11751329_s_at) / Fold change (ACY-1035/veh), FGFR1OP (ProbeSet 11751329_s_at) / Fold change (Aza/veh), VPS36 (ProbeSet 11739960_a_at) / Fold change (ACY-1035/veh), VPS36 (ProbeSet 11739960_a_at) / RFU SYPL1 (11715823_x_at) / Fold change /veh SYPL1 (11715823_x_at) / RFU IGFBP7 (11715501_s_at) / Fold change /veh IGFBP7 (11715501_s_at) / RFU REEP3 (11722064_at) / Fold change /veh REEP3 (11722064_at) / RFU IGLL1 (11728026_x_at) / Fold change /veh IGLL1 (11728026_x_at): dose or concentration left out as unconfirmed
Settings: MV-4-11 cells, 48 hours

Structure (SMILES): Nc1ncn([C@@H]2O[C@H](CO)[C@@H](O)[C@H]2O)c(=O)n1 [azacitidine]
- RFU RHOB (11743442_s_at): 110.59 RFU
